Assay results reported in patent publication US20250179126A1, “A NOVEL PEPTIDE FROM A PHOTOSYNTHETIC BACERIUM DIRECTLY TARGETS MITOCHONDRIA TO TRIGGER APOPTOSIS IN ADVANCED PROSTATE CANCER CELLS” (priority 2022, published 2025).

How the values were obtained:
[1] = test system: LNCaP prostate cancer cells; test: MTT cell viability assay, LNCaP prostate cancer cells; format: cell-based, human; conditions: LNCaP (p53 wild-type, AR+), 24-72 hr; paclitaxel 1 nM
Experimental: (§1) Cell lines and culture: Human cancer and noncancer (immortalized and nonimmortalized) cell lines were obtained from the American Type Culture Collection [prostate cancer (PC3, DU145 and LNCaP), normal prostate (CRL11611), breast cancer (MCF-7), ovarian cancer (SK-OV3 adenocarcinoma), lung cancer (A549)]. MDD2 breast cancer cells (p53 dominant-negative) were provided courtesy of Dr Andrei V. Gudkov, Roswell Park Cancer Institute. 20 All cell lines were cultured in MEM-E (Invitrogen) supplemented with 10% heat-inactivated fetal bovine serum (Atlanta Biological, Inc.), 100 units/mL penicillin, and 100 μg/mL streptomycin at 37° C. in 5% CO2.

[2] = test system: DU145 prostate cancer cells; test: MTT cell viability assay, DU145 prostate cancer cells; format: cell-based, human; conditions: DU145 (p53-mutant, AR−), 24-72 hr, paclitaxel 1 nM
From the text: Cell viability was detected by MTT assays, and the control (PBS-treated) cells were considered 100% viable. Mean±SE (N=3). *P<0.05, **P<0.01, ***P<0.001.
as §1

[3] = test system: PC3 prostate cancer cells; test: MTT cell viability assay, PC3 prostate cancer cells; format: cell-based, human; conditions: PC3 (p53-null, AR−), 24-72 hr, paclitaxel 1 nM
Experimental: as §1

[4] = test system: normal prostate cells CRL11611; test: MTT cell viability assay, normal prostate CRL11611 cells; format: cell-based, human; conditions: normal prostate CRL11611 (p53+, AR+), 24-72 hr, paclitaxel 1 nM
From the text: FIG. 4A-4D: Effect of peptides on prostate cancer cell lines with differences in p53 and AR expression status. […] Control (PBS)-treated cells were considered to have 100% viability. Mean±SE (N=3).
as §1
Cytotoxicity assay: The MTT assay was performed as we previously described (Cha et al., Cancer Research 2020, 80: 1615-1623).

[5] = test system: normal prostate CRL11611 cells; test: Annexin-V apoptosis assay by flow cytometry, normal prostate CRL11611; format: cell-based, human; conditions: normal CRL11611, 48 hr; Ptxl 1 nM, p28 50 μM, aurA/aurB 0.5-50 μM
Experimental: (§2) FIG. 7A-7D: Determination of apoptotic cell death. Prostate cancer cell lines (7A: LNCaP, 7B: DU145 and 7C: PC3) and normal prostate CRL11611 cells (7D) were exposed to the indicated agents for 48 hr and stained using apoptosis assay kits according to the manufacturer's instructions. The samples were analyzed by flow cytometry. Mean±SE (N=3).
(§3) After 48 hr, annexin-V apoptosis assays (Thermo Fisher Scientific) were conducted to detect apoptotic cells. At least 10,000 cells in each case were analyzed by FACS (RRC, UIC).

PC3 cells = test: Annexin-V apoptosis assay by flow cytometry, PC3; format: cell-based, human; conditions: PC3, 48 hr; Ptxl 1 nM, p28 50 μM, aurA/aurB 0.5-50 μM
Experimental: as §2, §3

PC3 xenograft tumors = test: PC3 xenograft animal model; format: in vivo, athymic mice; conditions: end of treatment, four weeks i.p.; aurB 5 mg/kg daily, Ptxl 10 mg/kg once a week
From the text: FIG. 10A-10D: Inhibition of PC3 xenograft tumor growth. 10A, When the s.c. tumors reached ˜5 mm, athymic mice were randomized into control (PBS) and i.p. treatment groups. Mean±SE (N=5). *P<0.01. […] 10C, At the end of treatment, tumors were dissected and weighed. * P<0.01. 10D, In sections of tumors from the control group, there was a marked increase in Ki-67-positive proliferating cells (stained brown and counterstained with haematoxylin, ×40), and only a few apoptotic cells were observed, as determined by TUNEL and caspase-3 (Casp-3) staining. There was an apparent sharp reduction in Ki-67-positive proliferating cells and a higher number of TUNEL-positive apoptotic cells in the aurB-treated group compared to the control group. Similarly, Casp-3 expression in aurB-treated tumors was increased markedly compared with that in untreated controls.
Xenograft animal model: Human prostate cancer cells (PC3) were injected s.c. into the right flanks of 5- to 6-week-old male athymic mice 78. When tumors reached 5 mm in diameter, animals were randomized into control and treatment groups. […] All animals were weighed twice a week. At necropsy, tumors were dissected and weighed. Statistical comparisons were performed by one-way analysis of variance (ANOVA) (control vs treatment). Tumor samples were fixed overnight in 10% buffered formalin. Fixation was followed by dehydration, clearing and infiltration. Samples were then embedded in paraffin, and 4 μm sections were cut on a microtome. Ki67 (LabVision) staining was performed on the tissue sections using a Vector Vectastain Elite ABC Kit. The TUNEL assay was performed on the sections using a Millipore Sigma ApopTag® Peroxidase In Situ Apoptosis Detection Kit.

LNCaP cells = test: Annexin-V apoptosis assay by flow cytometry, LNCaP; format: cell-based, human; conditions: 48 hr, Ptxl 1 nM, p28 50 μM, aurA/aurB 0.5-50 μM
Experimental: as §2, §3

DU145 cells = test: Annexin-V apoptosis assay by flow cytometry, DU145; format: cell-based, human; conditions: DU145, 48 hr; Ptxl 1 nM, p28 50 μM, aurA/aurB 0.5-50 μM
Experimental: as §2, §3

Row | SMILES | cytotoxic effect (MTT cell viability) [1] | cytotoxic effect (MTT cell viability) [2] | cytotoxic effect (MTT cell viability) [3] | cytotoxic effect (MTT cell viability) [4] | apoptotic cell death [5] | apoptotic cell death (PC3 cells) | tumor growth inhibition vs PBS control (PC3 xenograft tumors) [%] | cytotoxic effect (MTT cell viability) ([2]; listed as Ptxl) | cytotoxic effect (MTT cell viability) ([3]; listed as Ptxl) | cytotoxic effect (MTT cell viability) ([4]; listed as Ptxl) | apoptotic cell death (LNCaP cells) | apoptotic cell death (DU145 cells)
1 | CSCC[C@H](NC(=O)CNC(=O)[C@H](CC(=O)O)NC(=O)[C@@H](NC(=O)[C@@H](NC(=O)[C@@H](NC(=O)CNC(=O)[C@H](CCC(N)=O)NC(=O)[C@H](CCSC)NC(=O)[C@H](CC(=O)O)NC(=O)[C@H](C)NC(=O)[C@H](C)NC(=O)[C@@H](NC(=O)[C@H](CO)NC(=O)[C@@H](N)CC(C)C)[C@@H](C)O)C(C)C)C(C)C)[C@@H](C)O)C(=O)N[C@@H](C)C(=O)N[C@@H](CO)C(=O)NCC(=O)N[C@@H](CC(C)C)C(=O)N[C@@H](CC(=O)O)C(=O)N[C@@H](CCCCN)C(=O)N[C@@H](CC(=O)O)C(=O)N[C@@H](Cc1ccc(O)cc1)C(=O)N[C@@H](CC(C)C)C(=O)N[C@@H](CCCCN)C(=O)N1CCC[C@H]1C(=O)N[C@@H](CC(=O)O)C(=O)N[C@@H](CC(=O)O)C(=O)O [p28, LST AAD MQG VVT DGM ASG LDK DYL KPDD, reference compound] | dose-dependent effect | dose-dependent effect | but not p53-null PC3 cells | but not p53-null PC3 cells or normal CRL11611 cells | – | – | – | – | – | – | – | –
2 | CC(=O)O[C@H]1C(=O)[C@@]2(C)[C@H]([C@H](OC(=O)c3ccccc3)[C@]3(O)C[C@H](OC(=O)[C@H](O)[C@@H](NC(=O)c4ccccc4)c4ccccc4)C(C)=C1C3(C)C)[C@]1(OC(C)=O)CO[C@@H]1C[C@@H]2O [paclitaxel, reference compound] | significantly induced time-dependent cytotoxicity | significantly induced time-dependent cytotoxicity | significantly induced time-dependent cytotoxicity | significantly induced time-dependent cytotoxicity | induced apoptotic cell death | induced apoptotic cell death | 52 | less susceptible | less susceptible | most toxic | induced apoptotic cell death | induced apoptotic cell death
